# Results from US20030129193A1 (priority 2001, published 2003).
# B1: IgG-H6—N′-cys-tTF219: one molecule of IgG linked via SMPT to one or two molecules of tTF (conjugate)
# chain: HHHHHHAMALVPRGSCGTTNTVAAYNLTWKSTNFKTILEWEPKPVNQVYTVQISTKSGDWKSKCFYTTDTECDLTDEIVKDVKQTYLARVFSYPAGNVESTGSAGEPLYENSPEFTPYLETNLGQPTIQSFEQVGTKVNVTVEDERTLVRRNNTFLSLRDVFGKDLIYTLYYWKSSSSGKKTAKTNTNEFLIDVDKGENYCFSVQAVIPSRTVNRKSTDSPVECMGQEKGEFRE
# modifications: left off: large carriers
# B2: Annexin V: binds to PS with high affinity (protein, UniProt P08758 2-320, looked up)
# Annexin A5: AQVLRGTVTDFPGFDERADAETLRKAMKGLGTDEESILTLLTSRSNAQRQEISAAFKTLFGRDLLDDLKSELTGKFEKLIVALMKPSRLYDAYELKHALKGAGTNEKVLTEIIASRTPEELRAIKQVYEEEYGSSLEDDVVGDTSGYYQRMLVVLLQANRDPDAGIDEAQVEQDAQALFQAGELKWGTDEEKFITIFGTRSVSHLRKVFDKYMTISGFQIEETIDRETSGNLEQLLLAVVKSIRSIPAYLAETLYYAMKGAGTDDHTLIRVMVSRSEIDLFNIRKEFRKNFATSLYSMIKGDTSGDYKKALLLLCGEDD
# Experiments:
# [1] = test system: tissue factor on HUVEC cells; assay: FACS analysis of tissue factor expression; assay type: cell-based, human; details: 6 h at 37°; TNFα 500 U/ml, LPS 10 μg/ml, VEGF 1 nM
# Description: To analyze tissue factor expression on the surface of endothelial cells, HUVEC cells were incubated with TNFα (500 U/ml), LPS (10 μg/ml) or vascular endothelial growth factor (VEGF, 1 nM) alone or in combination for 6 h at 37°. Cells were then detached and stained for surface expression of human tissue factor with a sheep-anti-human tissue factor antibody (Haemochrom, Essen, Germany) and an appropriate FITC-conjugated secondary antibody. Fluorescent cells were detected on a flow cytometer (Becton Dickinson. San Jose, Calif.).
# Mouse endothelial cells = assay: Cell based two stage coagulation assay
# Description: (§1) Mouse endothelial cells were seeded in 48 well tissue culture plates and allowed to adhere overnight. Cells were stimulated with TNFα at the following concentrations: 500 U/ml; 100 U/ml; 20 U/ml; 4 U/ml; 0.8 U/ml; 0.16 U/ml; and with medium only.
# Endothelial cells were also tested for coagulant activity in a cell based two stage coagulation assay. After incubation with TNFα, cells were washed and incubated with coagulation factor mix (0.5 μg/ml factor VIIa in a mix containing 2.8 μg/ml factor IX, 3.4 μg/ml factor X, 50 μM phospholipids, in calcium buffer). The supernatant of wells was transferred into a 96 well ELISA plate. Substrate S2765 was added and Factor Xa generation measured.
# VCAM-1 = assay: FACS for upregulation of VCAM-1; assay type: cell-based, mouse
# Description: as §1
# Endothelial cells were then investigated for upregulation of the adhesion molecule VCAM-1 by fluorescence activated cell stain (FACS). To this end, cells were stained with an antibody against murine VCAM-1, followed by an appropriate FITC-conjugated secondary antibody. Fluorescent cells were detected on a flow cytometer (Becton Dickinson. San Jose, Calif.).
# TNFα = details: cited from earlier work
# [2] = test system: cancer patients having progressive disease; details: human, in vivo; cited from earlier work
# [3] = test system: citrated mouse or human plasma; assay: In vitro coagulation assay on A20 cells; assay type: cell-based
# factor X = assay: Factor Xa production assay on A20 cells; assay type: cell-based; details: Factors II, VII and IX present
# [4] = test system: Factor X on IL-1α-stimulated bEnd.3 cells; assay: Chromogenic assay of coaguligand-induced Factor Xa formation; assay type: cell-based; details: 10 μg per ml
# Description: The ability of Annexin V to affect Factor Xa formation induced by coaguligand was determined by a chromogenic assay. […] Annexin V was added at concentrations ranging from 0.1 to 10 μg/ml and cells were incubated for 30 min. before addition of diluted Proplex T. The amount of Factor Xa generated in the presence or absence of Annexin V was determined. Each treatment was performed in duplicate and repeated at least twice.
# L540 Hodgkin tumors = assay: Annexin V inhibition of coaguligand-induced thrombosis in vivo; set-up: species or system SCID mice
# Description: The ability of Annexin V to inhibit coaguligand-induced thrombosis in vivo was examined in L540 Hodgkin-bearing SCID mice.
# Four hours after the last injection mice were anesthetized and perfused with heparinized saline. Tumors were removed, fixed with 4% formalin, paraffin-embedded and stained with hematoxylene-eosin. The number of thrombosed and non-thrombosed blood vessels were counted and the percentage of thrombosis was calculated.
molecule,measurement,setting,value
TNFα,tissue factor expression on the surface of HUVEC,[1],upregulated tissue factor expression
same,dose lower than for VCAM-1 upregulation,Mouse endothelial cells,125 fold
same,TNFα at which an increase versus negative control could be detected,Mouse endothelial cells; Factor Xa generation,"0,16 U/ml"
same,TNFα required for a measurable increase of VCAM-1 expression,VCAM-1,20 U/ml
VEGF,tissue factor expression on the surface of HUVEC,[1],upregulated tissue factor expression
Cc1ccc2c(=O)c3cccc(CC(=O)O)c3oc2c1C [DMXAA],"effectiveness in inducing TNFα, less than endotoxin",TNFα,20 fold
"NC(=O)c1nnn(Cc2cc(Cl)c(C(=O)c3ccc(Cl)cc3)c(Cl)c2)c1N [CAI, carboxyamidotriazole]","disease stabilization, patients",[2],49%
B1,reduction of coagulation-inducing activity relative to monomer / tTF219,[3]; less active,5 fold
same,concentration at which plasma coagulated in 50 seconds,[3]; localized on A20 cells via B21-2/10H10,5 nM
same,"Xa formation, less active than H6—N′-cys-tTF219",factor X,2 fold
B2,inhibition of factor Xa production,[4],58%
same,coaguligand-induced anti-tumor effects after pre-treatment,"L540 Hodgkin tumors; 100 μg Annexin V, 2 hours before 40 μg anti-VCAM-1•tTF",completely abolished
same,tumor morphology,L540 Hodgkin tumors; 100 μg alone,did not alter tumor morphology
